We go through one compound from patent US6410249B1, “Odorant receptors” (priority 1999, dated 2002).

The experiment deals with T1, receptor 5.24 (Carassius auratus, UniProt Q9PW88).
T1 construct: The receptor 5.24 full length cDNA detects 1-2 bands in genomic DNA blots; expressed in transfected cells; host or cells: HEK 293 cells expressing SV40 large T antigen (293-TSA)
T1 sequence (Q9PW88 25-877): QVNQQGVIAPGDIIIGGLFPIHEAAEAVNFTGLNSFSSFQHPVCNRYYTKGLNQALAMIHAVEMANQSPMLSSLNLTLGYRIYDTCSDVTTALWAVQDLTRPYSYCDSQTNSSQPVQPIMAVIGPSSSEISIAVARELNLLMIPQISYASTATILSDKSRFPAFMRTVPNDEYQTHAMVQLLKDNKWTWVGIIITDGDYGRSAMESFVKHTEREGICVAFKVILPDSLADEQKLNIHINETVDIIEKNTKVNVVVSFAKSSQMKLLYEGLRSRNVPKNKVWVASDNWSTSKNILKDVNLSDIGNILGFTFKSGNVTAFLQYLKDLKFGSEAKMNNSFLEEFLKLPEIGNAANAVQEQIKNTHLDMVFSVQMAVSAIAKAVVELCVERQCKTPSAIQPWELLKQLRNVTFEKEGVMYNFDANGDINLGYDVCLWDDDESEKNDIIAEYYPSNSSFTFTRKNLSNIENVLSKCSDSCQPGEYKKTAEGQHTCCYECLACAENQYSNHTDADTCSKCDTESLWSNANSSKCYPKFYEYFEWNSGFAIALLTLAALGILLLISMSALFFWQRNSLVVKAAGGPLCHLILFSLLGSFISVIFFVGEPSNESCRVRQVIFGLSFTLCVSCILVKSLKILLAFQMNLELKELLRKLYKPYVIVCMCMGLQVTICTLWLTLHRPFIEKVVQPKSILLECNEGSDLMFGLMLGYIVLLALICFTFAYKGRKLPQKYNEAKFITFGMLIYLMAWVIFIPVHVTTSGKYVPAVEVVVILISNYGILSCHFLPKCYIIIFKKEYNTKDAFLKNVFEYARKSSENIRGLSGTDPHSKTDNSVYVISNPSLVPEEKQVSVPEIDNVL
In words: IP3 accumulation in receptor 5.24-expressing HEK 293 cells. The class given is cell-based, goldfish. As to conditions: varying concentrations. The text has this: High-Affinity Binding of Radiolabeled L-Arginine to the Cloned Goldfish Odorant Receptor. To determine the affinity of the cloned goldfish amino acid receptor for basic amino acids, we characterized the ligand-receptor interaction by radiolabeled ligand binding to receptors expressed in mammalian cells. Human embryonic kidney (HEK) 293 cells were transfected with expression plasmids containing the receptor 5.24 cDNA insert. […] We next wished to determine what second messenger pathway receptor 5.24 couples to in HEK 293 cells. Control cells or cells expressing receptor 5.24 were exposed to varying concentrations of arginine and assayed for the accumulation of IP3 and cAMP.
IP3 and cAMP Measurements. For measurements of IP3 and cAMP, cell lines 5.24-20 and 2.2-9 (negative control) were plated at densities of 3.5×10^5 cells/well in 24 well plates and incubated overnight in DMEM containing 10% FBS. All subsequent manipulations prior to reaction termination were performed at 37° C. in 5% CO2. […] IP3 levels were determined by a radioreceptor competition assay (Dupont NEN). For cAMP measurements, after the 3 hour amino acid-free preincubation cells were washed once with PBS, preincubated for 15 min in PBS containing 0.5 mM IBMX, and exposed to odorants in 400 μl PBS/0.5 mM IBMX for 30 min. cAMP levels were determined by radioimmunoassay (DuPont NEN).

As to `N=C(N)NCCC[C@H](N)C(=O)O` [L-Arginine], the “IP3 accumulation, in words” value is on record as “specific increase in IP3”.
